# From patent publication US9409892B2, “4-hydroxy-isoquinoline compounds as HIF hydroxylase inhibitors” (FIBROGEN, INC., priority 2012, dated 2016)
# How the values were obtained:
# PHD1 (EGLN2) = PHD1 (EGLN2) (Homo sapiens (Human), UniProt Q96KS0); experiment: HIF-PH assay (14CO2 capture), PHD1 enzyme inhibition; format: biochemical; settings: Table 1; for IC50: individual measurement, read-out: IC50 (μM) PHD1; for PHD2/PHD1: ratio of the IC50 of the compound for each enzyme
# PHD2 (EGLN1) = PHD2 (EGLN1) (Homo sapiens (Human), UniProt Q9GZT9); experiment: HIF-PH assay (14CO2 capture), PHD2 enzyme inhibition; format: biochemical; settings: Table 1; individual measurement; read-out: IC50 (μM) PHD2
# Sequence of PHD2 (EGLN1) (Q9GZT9 whole entry): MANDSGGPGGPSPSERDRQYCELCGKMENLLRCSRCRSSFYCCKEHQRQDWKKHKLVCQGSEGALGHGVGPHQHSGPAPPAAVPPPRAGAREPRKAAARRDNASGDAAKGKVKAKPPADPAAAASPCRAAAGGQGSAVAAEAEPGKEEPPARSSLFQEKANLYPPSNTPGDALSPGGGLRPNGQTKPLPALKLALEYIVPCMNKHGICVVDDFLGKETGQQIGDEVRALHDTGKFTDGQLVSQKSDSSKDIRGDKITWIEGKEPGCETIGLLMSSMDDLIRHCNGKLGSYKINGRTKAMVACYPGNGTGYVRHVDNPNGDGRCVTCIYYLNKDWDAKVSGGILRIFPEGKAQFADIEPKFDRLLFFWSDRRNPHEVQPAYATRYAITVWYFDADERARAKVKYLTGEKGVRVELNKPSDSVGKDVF
# Sequence of PHD1 (EGLN2) (Q96KS0 whole entry): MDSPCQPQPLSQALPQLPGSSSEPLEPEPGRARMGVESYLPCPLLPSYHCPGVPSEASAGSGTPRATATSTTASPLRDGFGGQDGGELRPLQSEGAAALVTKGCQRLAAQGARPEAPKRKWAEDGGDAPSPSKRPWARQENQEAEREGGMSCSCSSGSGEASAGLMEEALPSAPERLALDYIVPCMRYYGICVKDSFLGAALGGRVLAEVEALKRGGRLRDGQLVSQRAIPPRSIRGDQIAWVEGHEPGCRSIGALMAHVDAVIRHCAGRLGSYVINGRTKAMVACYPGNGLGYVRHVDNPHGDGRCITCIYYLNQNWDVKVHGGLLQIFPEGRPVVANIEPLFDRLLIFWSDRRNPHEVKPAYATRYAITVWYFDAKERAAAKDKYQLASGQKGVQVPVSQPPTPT
Structure (SMILES),IC50 (PHD1 (EGLN2)) [µM],PHD2/PHD1 (PHD1 (EGLN2)),IC50 (PHD2 (EGLN1)) [µM]
"O=C(NCC(C(=O)O)C1CC1)c1ncc2cc(Oc3ccccc3)ccc2c1O (stereo not drawn) [Compound 167, 2-Cyclopropyl-3-[(4-hydroxy-7-phenoxy-isoquinoline-3-carbonyl)-amino]-propionic acid]",9.57,10,100
"O=C(NCC(C(=O)O)c1ccccc1)c1ncc2cc(Oc3ccccc3)ccc2c1O (stereo not drawn) [Compound 169, 3-[(4-Hydroxy-7-phenoxy-isoquinoline-3-carbonyl)-amino]-2-phenyl-propionic acid]",26.6,6,153
"N#Cc1nc(C(=O)N[C@@H](CC(=O)O)c2ccccc2F)c(O)c2ccc(Oc3ccccc3)cc12 [Compound 170, 3-(S)-[(1-Cyano-4-hydroxy-7-phenoxy-isoquinoline-3-carbonyl)-amino]-3-(2-fluoro-phenyl)-propionic acid]",2.76,12,32.2
"Cc1ccccc1[C@H](CC(=O)O)NC(=O)c1nc(C#N)c2cc(Oc3ccccc3)ccc2c1O [Compound 171, 3-(S)-[(1-Cyano-4-hydroxy-7-phenoxy-isoquinoline-3-carbonyl)-amino]-3-o-tolyl-propionic acid]",5.26,9,45.7
"N#Cc1ccc([C@H](CC(=O)O)NC(=O)c2nc(C#N)c3cc(Oc4ccccc4)ccc3c2O)cc1 [Compound 172, 3-(S)-[(1-Cyano-4-hydroxy-7-phenoxy-isoquinoline-3-carbonyl)-amino]-3-(4-cyano-phenyl)-propionic acid]",2.83,10,27.6
"N#Cc1nc(C(=O)NC(CC(=O)O)c2ccc(Cl)cc2)c(O)c2ccc(Oc3ccccc3)cc12 (stereo not drawn) [Compound 173, 3-(4-Chloro-phenyl)-3-[(1-cyano-4-hydroxy-7-phenoxy-isoquinoline-3-carbonyl)-amino]-propionic acid]",3.97,5,20.9
"N#Cc1nc(C(=O)NC(CC(=O)O)c2cccnc2)c(O)c2ccc(Oc3ccccc3)cc12 (stereo not drawn) [Compound 174, 3-[(1-Cyano-4-hydroxy-7-phenoxy-isoquinoline-3-carbonyl)-amino]-3-pyridin-3-yl-propionic acid]",6.75,6,39.4
"N#Cc1nc(C(=O)N[C@@H](CC(=O)O)c2cccnc2)c(O)c2ccc(Oc3ccccc3)cc12 [Compound 175, 3-(S)-[(1-Cyano-4-hydroxy-7-phenoxy-isoquinoline-3-carbonyl)-amino]-3-pyridin-3-yl-propionic acid]",4.51,6,25.1
"N#Cc1nc(C(=O)N[C@H](CC(=O)O)c2cccnc2)c(O)c2ccc(Oc3ccccc3)cc12 [Compound 176, 3-(R)-[(1-Cyano-4-hydroxy-7-phenoxy-isoquinoline-3-carbonyl)-amino]-3-pyridin-3-yl-propionic acid]",4.08,6,24.6
"N#Cc1nc(C(=O)NCC(C(=O)O)C2CC2)c(O)c2ccc(Oc3c(F)cccc3F)cc12 (stereo not drawn) [Compound 180, 3{-[1-Cyano-7-(2,6-difluoro-phenoxy)-4-hydroxy-isoquinoline-3-carbonyl]-amino}-2-cyclopropyl-propionic acid]",4.57,6,28.9
"N#Cc1nc(C(=O)NCC(C(=O)O)c2ccccc2F)c(O)c2ccc(Oc3ccccc3)cc12 (stereo not drawn) [Compound 182, 3-[(1-Cyano-4-hydroxy-7-phenoxy-isoquinoline-3-carbonyl)-amino]-2-(2-fluoro-phenyl)-propionic acid]",1.81,7,11.9

# These reach a lower IC50 (PHD1 (EGLN2)). Values come first.
IC50 (PHD1 (EGLN2)) [µM],PHD2/PHD1 (PHD1 (EGLN2)),IC50 (PHD2 (EGLN1)) [µM],Structure (SMILES)
0.42,29,12.2,"N#Cc1nc(C(=O)NCC(C(=O)O)C2CC2)c(O)c2ccc(Oc3ccccc3)cc12 (stereo not drawn) [Compound 166, 3-[(1-Cyano-4-hydroxy-7-phenoxy-isoquinoline-3-carbonyl)-amino]-2-cyclopropyl-propionic acid]"
0.75,14,10.5,"N#Cc1nc(C(=O)NCC(C(=O)O)C2CC2)c(O)c2ccc(Oc3ccccc3F)cc12 (stereo not drawn) [Compound 177, 3{-[1-Cyano-7-(2-fluoro-phenoxy)-4-hydroxy-isoquinoline-3-carbonyl]-amino}-2-cyclopropyl-propionic acid]"
0.95,9,8.54,"N#Cc1nc(C(=O)NCC(C(=O)O)C2CC2)c(O)c2ccc(Oc3ccc(F)cc3)cc12 (stereo not drawn) [Compound 179, 3{-[1-Cyano-7-(4-fluoro-phenoxy)-4-hydroxy-isoquinoline-3-carbonyl]-amino}-2-cyclopropyl-propionic acid]"
1.45,7,9.45,"N#Cc1nc(C(=O)NCC(C(=O)O)c2ccc(F)cc2)c(O)c2ccc(Oc3ccccc3)cc12 (stereo not drawn) [Compound 181, 3-[(1-Cyano-4-hydroxy-7-phenoxy-isoquinoline-3-carbonyl)-amino]-2-(4-fluoro-phenyl)-propionic acid]"
1.63,8,12.6,"CC(C)CC(CNC(=O)c1nc(C#N)c2cc(Oc3ccccc3)ccc2c1O)CC(=O)O (stereo not drawn) [Compound 183, 3-{[(1-Cyano-4-hydroxy-7-phenoxy-isoquinoline-3-carbonyl)-amino]-methyl}-5-methyl-hexanoic acid]"
1.38,9,12.6,"CC(CCC(=O)O)NC(=O)c1nc(C#N)c2cc(Oc3ccccc3)ccc2c1O (stereo not drawn) [Compound 184, 4-[(1-Cyano-4-hydroxy-7-phenoxy-isoquinoline-3-carbonyl)-amino]-pentanoic acid]"
